In general, IC50 refers to the concentration that gives 50% inhibition. High values mean a need for much substance, low ones inhibition by little substance.

The source of these data is BindingDB's records for patent US20240270732 (Chengdu Biobel Biotechnology Co., 2024).

For the assay, the target named is T1, Receptor-interacting serine/threonine-protein kinase 1 (Homo sapiens, UniProt Q13546).
T1 sequence (Q13546 whole entry): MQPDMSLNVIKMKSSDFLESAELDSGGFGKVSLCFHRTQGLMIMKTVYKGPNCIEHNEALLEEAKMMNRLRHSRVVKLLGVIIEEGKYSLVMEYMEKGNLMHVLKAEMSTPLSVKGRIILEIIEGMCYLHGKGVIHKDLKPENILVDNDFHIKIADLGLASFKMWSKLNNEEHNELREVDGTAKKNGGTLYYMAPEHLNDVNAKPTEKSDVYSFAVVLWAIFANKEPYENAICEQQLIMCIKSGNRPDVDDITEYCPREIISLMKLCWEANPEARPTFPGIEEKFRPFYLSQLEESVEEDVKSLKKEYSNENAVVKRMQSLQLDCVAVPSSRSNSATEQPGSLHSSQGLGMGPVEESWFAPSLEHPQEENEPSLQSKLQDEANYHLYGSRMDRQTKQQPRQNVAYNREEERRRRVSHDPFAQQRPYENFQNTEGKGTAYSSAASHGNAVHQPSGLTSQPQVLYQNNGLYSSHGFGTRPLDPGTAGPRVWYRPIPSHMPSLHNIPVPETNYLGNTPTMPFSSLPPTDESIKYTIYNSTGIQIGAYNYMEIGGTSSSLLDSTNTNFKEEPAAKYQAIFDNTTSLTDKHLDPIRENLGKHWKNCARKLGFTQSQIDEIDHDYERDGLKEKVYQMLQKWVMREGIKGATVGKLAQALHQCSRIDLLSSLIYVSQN
Description: Inhibitory Activity Assay. The procedure:
The compound of the present invention and the control compound were dissolved in the assay buffer (50 mM Hepes pH 7.5, 50 mM NaCl, 30 mM MgCl2, 1 mM DTT, 0.02% CHAPS, 0.5 mg/mL BSA), and diluted in a ratio of 1:1.5 using a 22-point titration (high concentration 2 μM), and then added to a 384-well plate. […] After completion of the reaction, 5 μL of ADP-Glo reagent containing 0.02% CHAPS was added to each well and incubated at room temperature for 1 h to terminate the kinase reaction and use up all remaining ATP. Then, 5 μL of ADP-Glo detection solution containing 0.02% CHAPS was added to each well and incubated at room temperature for 30 min to measure the emittance intensity.
On to `C[C@H]1Oc2ccc(C#CCOCCOCCOCCOCCOCC#CC#CCOCCOCCOCCOCCOCC#Cc3ccc4c(c3)N(C)C(=O)[C@@H](NC(=O)c3n[nH]c(Cc5ccccc5)n3)[C@@H](C)O4)cc2N(C)C(=O)[C@H]1NC(=O)c1n[nH]c(Cc2ccccc2)n1` [US20240270732, Compound I-87], for which the midpoint of inhibition, the IC50, lay at 6.32 nM.

Turning to `C[C@H]1Oc2ccc(C#CCCCN(C)CCCC#Cc3ccc4c(c3)N(C)C(=O)[C@@H](NC(=O)c3ncn(Cc5ccccc5)n3)[C@@H](C)O4)cc2N(C)C(=O)[C@H]1NC(=O)c1ncn(Cc2ccccc2)n1` [US20240270732, Compound I-97], the IC50 worked out at 18.3 nM. This IC50 is about 2.9-fold higher than that of the molecule before.

`C[C@H]1Oc2ccc(C#CCN3CCN(CC#CC#CCN4CCN(CC#Cc5ccc6c(c5)N(C)C(=O)[C@@H](NC(=O)c5n[nH]c(Cc7ccccc7)n5)[C@@H](C)O6)CC4)CC3)cc2N(C)C(=O)[C@H]1NC(=O)c1n[nH]c(Cc2ccccc2)n1` [US20240270732, Compound I-91] yielded an IC50 of 4.36 nM.

Turning to `C[C@H]1Oc2ccc(C#CCN3CCN(CC#Cc4ccc5c(c4)N(C)C(=O)[C@@H](NC(=O)c4nnn(Cc6ccccc6)n4)CO5)CC3)cc2N(C)C(=O)[C@H]1NC(=O)c1n[nH]c(Cc2ccccc2)n1` [US20240270732, Compound I-7], the IC50 was 7.81 nM.

The molecule `C[C@H]1Oc2ccc(C#Cc3cccc([N+](=O)[O-])c3)cc2N(C)C(=O)[C@H]1NC(=O)c1n[nH]c(Cc2ccccc2)n1` [US20240270732, Compound I-115] showed an IC50 of 7.35 nM.

In the case of `C[C@H]1Oc2ccc(C#CCN3CCN(CC#Cc4ccc5c(c4)N(C)C(=O)[C@@H](NC(=O)c4ncc(Cc6ccccc6)o4)[C@@H](C)O5)CC3)cc2N(C)C(=O)[C@H]1NC(=O)c1ncc(Cc2ccccc2)o1` [US20240270732, Compound I-44], the midpoint of inhibition, the IC50, lay at 14.9 nM. Against the preceding molecule, the IC50 is about 2-fold higher.

Take `C#CCOCCOCCOCCOCCOCC#Cc1ccc2c(c1)N(C)C(=O)[C@@H](NC(=O)c1ncn(Cc3ccccc3)n1)CO2` [US20240270732, Compound I-85-2]: the IC50 is 6.63 nM.

In turn, `C#CCN1CCN(CC#Cc2ccc3c(c2)N(C)C(=O)[C@@H](NC(=O)c2ncn(Cc4cccc(N)c4)n2)[C@@H](C)O3)CC1` [US20240270732, Compound I-77] came in with a concentration for half-maximal inhibition (IC50) of 29 nM. Compared with the last molecule, the IC50 is about 4.4-fold higher.

As to `C#CCN1CCN(CC#Cc2ccc3c(c2)N(C)C(=O)[C@@H](NC(=O)c2ncn(Cc4ccccc4)n2)[C@@H](C)O3)CC1` [US20240270732, Compound I-37], the IC50 came to 4.17 nM.

In turn, `C[C@H]1Oc2ccc(C#CCN3CCN(CC#Cc4ccc5c(c4)N(C)C(=O)[C@@H](NC(=O)c4ncn(Cc6cccnc6)n4)[C@@H](C)O5)CC3)cc2N(C)C(=O)[C@H]1NC(=O)c1ncn(Cc2cccnc2)n1` [US20240270732, Compound I-74] gave an IC50 of 17.5 nM.

`C[C@H]1Oc2ccc(C#CCN3CCN(CC#Cc4ccc5c(c4)N(C)C(=O)[C@@H](NC(=O)c4cn(Cc6ccccc6)nn4)[C@@H](C)O5)CC3)cc2N(C)C(=O)[C@H]1NC(=O)c1cn(Cc2ccccc2)nn1` [US20240270732, Compound I-54] had an IC50 of 14.7 nM.

The molecule `C[C@H]1Oc2ccc(C#CCN3CCN(CC#Cc4ccc5c(c4)N(C)C(=O)[C@@H](NC(=O)c4n[nH]c(Cc6ccncc6)n4)[C@@H](C)O5)CC3)cc2N(C)C(=O)[C@H]1NC(=O)c1n[nH]c(Cc2ccncc2)n1` [US20240270732, Compound I-66] gave a 50% inhibitory concentration (IC50) of 18.8 nM.

`C#CCN1CCN(CC#Cc2ccc3c(c2)N(C)C(=O)[C@@H](NC(=O)c2cn(Cc4ccccc4)cn2)[C@H](C)O3)CC1` [US20240270732, Compound I-63] yielded an IC50 of 59.2 nM.

As for `C[C@H]1Oc2ccc(C#CCN3CCN(CC#Cc4ccc5c(c4)N(C)C(=O)[C@@H](NC(=O)c4ncn(Cc6ccccc6)n4)CO5)CC3)cc2N(C)C(=O)[C@H]1NC(=O)c1cn(Cc2ccccc2)cn1` [US20240270732, Compound I-33], the IC50 is 3.54 nM.

For the molecule `C#Cc1ccc2c(c1)N(C)C(=O)[C@@H](NC(=O)c1ncn(Cc3ccccc3)n1)[C@@H](C)O2` [US20240270732, Compound I-120], the IC50 stood at 10.8 nM.

Molecule `C#CCN1CCN(CC#Cc2ccc3c(c2)N(C)C(=O)[C@@H](NC(=O)c2n[nH]c(Cc4cccc(O)c4)n2)[C@@H](C)O3)CC1` [US20240270732, Compound I-69] showed an IC50 of 19.4 nM.

`C#CCN1CCN(CC#Cc2ccc3c(c2)N(C)C(=O)[C@@H](NC(=O)c2cnn(Cc4ccccc4)c2)[C@@H](C)O3)CC1` [US20240270732, Compound I-47] yielded an IC50 of 13.6 nM.

In turn, `C#CCN1CCN(CC#Cc2ccc3c(c2)N(C)C(=O)[C@@H](NC(=O)c2n[nH]c(Cc4cccc(N)c4)n2)[C@@H](C)O3)CC1` [US20240270732, Compound I-71] displayed an IC50 of 23.9 nM. Compared with the last molecule, the IC50 is about 1.8-fold higher.

`C#CCOCCOCCOCCOCCOCC#Cc1ccc2c(c1)N(C)C(=O)[C@@H](NC(=O)c1ncn(Cc3ccccc3)n1)[C@@H](C)O2` [US20240270732, Compound I-84-2] had an IC50 of 8.03 nM. Compared with the last molecule, the IC50 is about 3-fold lower.

`C[C@H]1Oc2ccc(C#Cc3ccncc3)cc2N(C)C(=O)[C@H]1NC(=O)c1n[nH]c(Cc2ccccc2)n1` [US20240270732, Compound I-109]: the IC50 is 4.26 nM.

For the molecule `C#CCN1CCN(CC#Cc2ccc3c(c2)N(C)C(=O)[C@@H](NC(=O)c2noc(Cc4ccccc4)n2)[C@@H](C)O3)CC1` [US20240270732, Compound I-51], the concentration for half-maximal inhibition (IC50) is 15.9 nM.

`C[C@H]1Oc2ccc(C#CCOCCOCCOCCOCCOCC#Cc3ccc4c(c3)N(C)C(=O)[C@@H](NC(=O)c3n[nH]c(Cc5ccccc5)n3)CO4)cc2N(C)C(=O)[C@H]1NC(=O)c1n[nH]c(Cc2ccccc2)n1` [US20240270732, Compound I-83] yielded an IC50 of 8.18 nM. This IC50 lies about 1.9-fold lower than the previous one.

As for `C#CCN1CCN(CC#Cc2ccc3c(c2)N(C)C(=O)[C@@H](NC(=O)c2nnc(Cc4ccccc4)o2)[C@@H](C)O3)CC1` [US20240270732, Compound I-49], the IC50 is 16.2 nM. Against the preceding molecule, the IC50 is about 2-fold higher.

`C[C@H]1Oc2ccc(C#CCN3CCN(CC#Cc4ccc5c(c4)N(C)C(=O)[C@@H](NC(=O)c4ncn(Cc6ccccc6)n4)CO5)CC3)cc2N(C)C(=O)[C@H]1NC(=O)c1n[nH]c(Cc2ccccc2)n1` [US20240270732, Compound I-5]: 3.35 nM corresponded to half-maximal inhibition (IC50).

Consider `C#Cc1ccc2c(c1)N(C)C(=O)[C@@H](NC(=O)c1nc(Cc3ccccc3)n[nH]1)[C@@H](C)O2` [US20240270732, Compound I-119], for which half-maximal inhibition (IC50) required 9.81 nM.

For the molecule `CN1C(=O)[C@@H](NC(=O)c2n[nH]c(Cc3ccccc3)n2)COc2ccc(C#CCOCCOCCOCCOCCOCC#CC#CCOCCOCCOCCOCCOCC#Cc3ccc4c(c3)N(C)C(=O)[C@@H](NC(=O)c3n[nH]c(Cc5ccccc5)n3)CO4)cc21` [US20240270732, Compound I-88], the IC50 came out at 6.58 nM. This IC50 and that of the molecule before are within 1.5-fold of each other.

As for `CN1C(=O)[C@@H](NC(=O)c2n[nH]c(Cc3ccccc3)n2)COc2ccc(C#CCN3CCN(CC#Cc4ccc5c(c4)N(C)C(=O)[C@@H](NC(=O)c4n[nH]c(Cc6ccccc6)n4)CO5)CC3)cc21` [US20240270732, Compound I-11], the IC50 is 1.96 nM.

For `C#CCN1CCN(CC#Cc2ccc3c(c2)N(C)C(=O)[C@@H](NC(=O)c2n[nH]c(Cc4ccncc4)n2)[C@@H](C)O3)CC1` [US20240270732, Compound I-65], the IC50 came to 20.7 nM.

`C#CCN1CCN(CC#Cc2ccc3c(c2)N(C)C(=O)[C@@H](NC(=O)c2n[nH]c(Cc4ccccc4)n2)CO3)CC1` [US20240270732, Compound I-10] came in with an IC50 of 3.21 nM.

`C#CCOCCOCCOCCOCCOCC#Cc1ccc2c(c1)N(C)C(=O)[C@@H](NC(=O)c1n[nH]c(Cc3ccccc3)n1)CO2` [US20240270732, Compound I-82-2] displayed an IC50 of 7.15 nM. Compared with the last molecule, the IC50 is about 2.2-fold higher.

`C[C@H]1Oc2ccc(C#CCN3CCN(CC#Cc4ccc5c(c4)N(C)C(=O)[C@@H](NC(=O)c4nnn(Cc6ccccc6)n4)[C@@H](C)O5)CC3)cc2N(C)C(=O)[C@H]1NC(=O)c1n[nH]c(Cc2ccccc2)n1` [US20240270732, Compound I-6] returned an IC50 of 11.2 nM.

For `C#CCN1CCN(CC#Cc2ccc3c(c2)N(C)C(=O)[C@@H](NC(=O)c2n[nH]c(Cc4ccccc4)n2)[C@H](C)O3)CC1` [US20240270732, Compound I-18], the IC50 worked out at 57.7 nM. This IC50 is about 5.2-fold higher than that of the molecule before.

On to `C[C@H]1Oc2ccc(C#Cc3cccnc3)cc2N(C)C(=O)[C@H]1NC(=O)c1n[nH]c(Cc2ccccc2)n1` [US20240270732, Compound I-111], for which half-maximal inhibition (IC50) was put at 6.69 nM. This IC50 is about 8.6-fold lower than that of the molecule before.

As to `O=C(N[C@H]1COc2ccc(C#CCN3CCN(CC#Cc4ccc5c(c4)NC(=O)[C@@H](NC(=O)c4ncn(Cc6ccccc6)n4)CO5)CC3)cc2NC1=O)c1ncn(Cc2ccccc2)n1` [US20240270732, Compound I-42], the IC50 came out at 5.03 nM.

The molecule `C[C@H]1Oc2ccc(C#CCOCCOCCOCCOCCOCC#Cc3ccc4c(c3)N(C)C(=O)[C@@H](NC(=O)c3ncn(Cc5ccccc5)n3)[C@@H](C)O4)cc2N(C)C(=O)[C@H]1NC(=O)c1ncn(Cc2ccccc2)n1` [US20240270732, Compound I-84-1] registered an IC50 of 8.99 nM. This IC50 lies about 1.8-fold higher than the previous one.

Regarding `C#CCN1CCN(CC#Cc2ccc3c(c2)N(C)C(=O)[C@@H](NC(=O)c2ncn(Cc4ccccc4)n2)CO3)CC1` [US20240270732, Compound I-29], the IC50 is 2.88 nM.
